Values quoted from earlier work as cited in patent publication US20090082464A1, “EXTERNALLY MASKED NEOPENTYL SULFONYL ESTER CYCLIZATION RELEASE PRODRUGS OF ACAMPROSATE, COMPOSITIONS THEREOF, AND METHODS OF USE” (priority 2007, published 2009).

How the values were obtained:
[1] = system: cocaine conditioned mice; details: 100 mg/kg for 3 days

**Q.** What does the source list for `CC(=O)NCCCS(=O)(=O)O` [acamprosate, 3-(Acetylamino)propylsulfonic acid]?
**A.** relapse-like behavior [1]: attenuated relapse-like behavior; steady-state plasma concentration (doses of about 1-2 gm per day): 370 to 640 ng/mL; time post-dose at which steady-state plasma concentration occurs (doses of about 1-2 gm per day): 3 to 8 h; oral bioavailability of acamprosate (humans, oral): about 11%
